Laboratory results taken from PMC4774911, “Biochemical Screening of Five Protein Kinases from Plasmodium falciparum against 14,000 Cell-Active Compounds” (PLoS ONE, 2016).
Read-outs that look alike come from different tables or passages of the source.

Experiments:
3D7 PFLDH [1] = system: 3D7 PFLDH; parameters: method as in ChEMBL; settings: ref ChEMBL; cited from earlier work
HepG2 cells = settings: cited from earlier work
[2] = molecular target: T1, Plasmodium falciparum protein kinase 6 (PK6) (Plasmodium falciparum, UniProt Q8IDW1); assay: biochemical; settings: hits below 1 uM; read-out: PK6 IC50
T1 construct: 6-Histidine (N); made in house
T1 sequence (Q8IDW1 1-305): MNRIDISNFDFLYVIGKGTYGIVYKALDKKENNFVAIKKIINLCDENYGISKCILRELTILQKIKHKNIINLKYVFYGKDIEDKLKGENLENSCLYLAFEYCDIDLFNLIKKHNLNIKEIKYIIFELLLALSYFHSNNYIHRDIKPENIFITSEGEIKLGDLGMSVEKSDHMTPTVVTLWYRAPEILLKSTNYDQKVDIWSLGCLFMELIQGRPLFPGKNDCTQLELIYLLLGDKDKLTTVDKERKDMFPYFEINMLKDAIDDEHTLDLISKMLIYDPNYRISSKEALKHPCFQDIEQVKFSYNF

P. falciparum DD2 = system: P. falciparum DD2; parameters: method as in ChEMBL; settings: ref ChEMBL; cited from earlier work
P. falciparum 3D7 cells = settings: cited from earlier work
[3] = molecular target: T2, Plasmodium falciparum calcium-dependent protein kinase 1 (CDPK1) (Plasmodium falciparum, UniProt P62344); assay: CDPK1 Kinase-Glo ATP-consumption screen and dose-response; assay type: biochemical; settings: hits below 1 uM; read-out: CDPK1 IC50
T2 construct: 6-Histidine (N); made in house
How it was run: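 Single-point testing used 1 μM final compound, then dose-response, against CDPK4 and CDPK1 with Syntide-2 (40 μM) as substrate. After 90 min, reactions were halted by 5 mM EGTA, and kinase activity was inferred from depleted ATP via Kinase-Glo luminescence.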

PKG = PKG (Plasmodium falciparum, UniProt Q8I719); assay: PKG IC50 (supplementary data file); assay type: biochemical
Description: Supplement pone.0149996.s003.xls, sheet "combined_1_sorted"

DD2 = system: DD2; parameters: method as in downloaded from ChEMBL; settings: ref downloaded from ChEMBL; cited from earlier work
3D7 PFLDH [4] = system: 3D7 PFLDH; parameters: method as in downloaded from ChEMBL; settings: ref downloaded from ChEMBL; cited from earlier work
[5] = molecular target: T3, Plasmodium falciparum calcium-dependent protein kinase 4 (CDPK4) (Plasmodium falciparum, UniProt Q8IBS5); assay: CDPK4 Kinase-Glo ATP-consumption screen and dose-response; assay type: biochemical; settings: hits below 1 uM
T3 construct: 6-Histidine (N); made in house
T3 sequence (Q8IBS5 1-528): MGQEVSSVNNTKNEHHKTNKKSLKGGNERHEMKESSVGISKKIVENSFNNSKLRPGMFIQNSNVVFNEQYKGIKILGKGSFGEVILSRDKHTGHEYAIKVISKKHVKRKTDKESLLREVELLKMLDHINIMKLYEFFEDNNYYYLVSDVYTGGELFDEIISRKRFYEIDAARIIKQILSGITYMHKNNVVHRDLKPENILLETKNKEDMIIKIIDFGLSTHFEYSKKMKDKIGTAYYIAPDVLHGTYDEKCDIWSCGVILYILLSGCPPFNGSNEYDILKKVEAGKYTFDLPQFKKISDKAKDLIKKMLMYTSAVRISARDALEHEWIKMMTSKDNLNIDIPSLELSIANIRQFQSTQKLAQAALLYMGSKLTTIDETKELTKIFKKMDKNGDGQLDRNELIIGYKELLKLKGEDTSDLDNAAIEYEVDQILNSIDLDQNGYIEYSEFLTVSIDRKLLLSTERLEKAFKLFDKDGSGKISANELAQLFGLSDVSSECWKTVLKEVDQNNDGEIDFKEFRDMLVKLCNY
Description: Biochemical assays were performed in white 384-well plates (Nunc). Liquid transfers were done manually with 8-channel pipets. Compounds were initially tested in a single-point screen (final concentration 1 μM). […] The catalytic activity of each kinase was considered proportional to ATP consumed, as determined from measurements of residual [ATP] with the luciferase-based reagent Kinase-Glo (Promega) following incubation. Luminescence (proportional to residual [ATP]) was measured on the plate readers FLx800 (BioTek Instruments, Winooski, VT, USA) and MicroBeta^2 (PerkinElmer, Waltham, MA, USA). Incubation times were chosen to ensure near-complete ATP depletion in the absence of inhibition, thus maximizing the difference in signal between inhibited and uninhibited wells.
40 μM Syntide-2 was used as a substrate; BKI-1 [14] was used as a control inhibitor, while reaction mixtures lacking Syntide-2 were included as an additional negative control. Incubation time was 90 minutes. Reactions were terminated by adding excess EGTA (5 mM), which sequesters Ca^2+ and halts calcium-dependent kinase activity.

[6] = HEPG2, ref downloaded from ChEMBL
[7] = 3D7, ref downloaded from ChEMBL

T2 sequence (P62344 whole entry): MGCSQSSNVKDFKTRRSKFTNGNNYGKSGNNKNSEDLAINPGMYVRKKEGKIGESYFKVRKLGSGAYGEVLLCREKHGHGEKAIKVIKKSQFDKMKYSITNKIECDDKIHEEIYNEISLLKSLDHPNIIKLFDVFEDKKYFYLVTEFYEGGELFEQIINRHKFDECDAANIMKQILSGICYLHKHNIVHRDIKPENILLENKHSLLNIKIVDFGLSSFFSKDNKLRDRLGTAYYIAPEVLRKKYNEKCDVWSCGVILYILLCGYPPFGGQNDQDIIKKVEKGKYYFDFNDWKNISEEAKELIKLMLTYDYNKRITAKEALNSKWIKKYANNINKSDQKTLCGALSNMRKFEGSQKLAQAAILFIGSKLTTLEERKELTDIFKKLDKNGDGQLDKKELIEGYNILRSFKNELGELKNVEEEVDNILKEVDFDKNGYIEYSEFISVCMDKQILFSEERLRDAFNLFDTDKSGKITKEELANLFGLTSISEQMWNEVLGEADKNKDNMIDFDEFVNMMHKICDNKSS
PKG, sequence (Q8I719 whole entry): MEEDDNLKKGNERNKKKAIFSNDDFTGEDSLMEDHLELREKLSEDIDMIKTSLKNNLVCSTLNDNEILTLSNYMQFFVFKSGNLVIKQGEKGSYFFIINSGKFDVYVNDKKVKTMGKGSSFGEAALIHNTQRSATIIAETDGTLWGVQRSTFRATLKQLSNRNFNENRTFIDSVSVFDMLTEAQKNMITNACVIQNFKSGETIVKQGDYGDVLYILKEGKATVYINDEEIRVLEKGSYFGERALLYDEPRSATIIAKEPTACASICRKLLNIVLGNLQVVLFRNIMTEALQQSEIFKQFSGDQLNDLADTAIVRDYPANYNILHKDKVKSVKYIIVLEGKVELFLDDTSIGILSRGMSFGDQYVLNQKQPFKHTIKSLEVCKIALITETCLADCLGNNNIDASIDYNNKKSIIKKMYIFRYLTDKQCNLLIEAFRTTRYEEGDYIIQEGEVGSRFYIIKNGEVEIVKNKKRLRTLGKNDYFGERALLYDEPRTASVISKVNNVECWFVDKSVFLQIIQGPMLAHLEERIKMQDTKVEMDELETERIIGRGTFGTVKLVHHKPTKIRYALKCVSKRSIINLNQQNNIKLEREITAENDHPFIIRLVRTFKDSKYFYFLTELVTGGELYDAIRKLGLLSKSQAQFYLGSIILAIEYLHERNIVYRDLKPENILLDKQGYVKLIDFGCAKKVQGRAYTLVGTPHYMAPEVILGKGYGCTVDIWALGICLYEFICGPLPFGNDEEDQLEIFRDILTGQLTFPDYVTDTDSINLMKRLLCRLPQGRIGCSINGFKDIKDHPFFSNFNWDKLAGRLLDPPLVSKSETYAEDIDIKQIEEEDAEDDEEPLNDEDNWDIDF

| Compound | IC50 [2] | IC50 [3] | IC50 (PKG) | IC50 [5] | PCT_INHIB_3D7_PFLDH (3D7 PFLDH [1]) | PCT_INHIB_HEPG2 (HepG2 cells; HepG2 cells, ref ChEMBL) | PCT_INHB_DD2 (P. falciparum DD2) | PCT_IHB_3D7 (P. falciparum 3D7 cells; P. falciparum 3D7, ref ChEMBL) | pXC50_3D7 (P. falciparum 3D7 cells; P. falciparum 3D7, ref ChEMBL) | PCT_INHB_DD2 (DD2) | PCT_INHIB_3D7_PFLDH (3D7 PFLDH [4]) | PCT_INHIB_HEPG2 (HepG2 cells; [6]) | PCT_IHB_3D7 (P. falciparum 3D7 cells; [7]) | pXC50_3D7 (P. falciparum 3D7 cells; [7]) |
| --- | --- | --- | --- | --- | --- | --- | --- | --- | --- | --- | --- | --- | --- | --- |
| Cc1ccc(Nc2nc3cc(Nc4ccnc(Nc5cccc(CS(C)(=O)=O)c5)n4)ccc3o2)cc1.O=C(O)C(F)(F)F [TCMDC-141957] | 229 nM | – | – | – | 4 | 55 | 81 | 100 | 6.0348 | – | – | – | – | – |
| C(=N\Nc1nccc2sc(-c3ccccc3)cc12)/c1cccnc1 [TCMDC-135190] | 278 nM | – | – | – | 8 | 0 | 10 | 97 | 6.086 | – | – | – | – | – |
| CN(c1ccc2c(c1)nc(NCc1ccccc1)n2C)c1ccnc(Nc2ccc(CS(C)(=O)=O)cc2)n1.Cl [TCMDC-138740] | 464 nM | – | – | – | 4 | 61 | 69 | 94 | 6.075 | – | – | – | – | – |
| N=C(N)c1ccc(Nc2nccc(Nc3nc(-c4ccccc4)cs3)n2)cc1.O=C(O)C(F)(F)F [TCMDC-136090] | 413 nM | – | – | – | 0 | 13 | 75 | 96 | 6.122 | – | – | – | – | – |
| Br.CC(=O)Nc1nc(C)c(-c2csc(Nc3ccc(Cl)cc3)n2)s1 [TCMDC-123995] | 95 nM | – | – | – | 0 | 14 | 93 | 96 | 6.589 | – | – | – | – | – |
| Cl.NC[C@H](CC1CCCCC1)NC(=O)c1ccc(-c2ccnc3[nH]ccc23)s1 [TCMDC-134150] | – | 492 nM | 1020 nM | 527 nM | – | – | – | – | – | 4 | 5 | 39 | 98 | 6.022 |
| CC(c1cccc(Nc2nccc(-c3c(-c4cccc(NC(=O)c5c(F)cccc5F)c4)nn4ccccc34)n2)c1)S(C)(=O)=O (stereo not drawn) [TCMDC-135670] | – | 21 nM | > 10000 nM | 90 nM | – | – | – | – | – | 99 | 0 | 76 | 98 | 7.241 |
| O=C(Nc1cccc(-c2nn3ccccc3c2-c2ccnc(Nc3ccc(-c4cc[nH]n4)cc3)n2)c1)c1c(F)cccc1F [TCMDC-135915] | – | 22 nM | > 10000 nM | 307 nM | – | – | – | – | – | 98 | 5 | 68 | 98 | 6.7232 |
| O=C(Nc1cccc(-c2nn3ccccc3c2-c2ccnc(Nc3ccc(NCCCN4CCOCC4)c(F)c3)n2)c1)c1c(F)cccc1F [TCMDC-135921] | 580 nM | 38 nM | 5460 nM | 315 nM | – | – | – | – | – | 97 | 0 | 86 | 100 | 6.586 |
| CN(C(=O)c1cc2c(-c3cncnc3)cccc2[nH]1)c1ccccc1 [TCMDC-134637] | – | 271 nM | – | – | 0 | 1 | 99 | 92 | 6.202 | – | – | – | – | – |

Continued, in another order:

| IC50 [2] | IC50 [3] | IC50 (PKG) | IC50 [5] | Compound | PCT_INHIB_3D7_PFLDH (3D7 PFLDH [1]) | PCT_INHIB_HEPG2 (HepG2 cells; HepG2 cells, ref ChEMBL) | PCT_INHB_DD2 (P. falciparum DD2) | PCT_IHB_3D7 (P. falciparum 3D7 cells; P. falciparum 3D7, ref ChEMBL) | pXC50_3D7 (P. falciparum 3D7 cells; P. falciparum 3D7, ref ChEMBL) | PCT_INHB_DD2 (DD2) | PCT_INHIB_3D7_PFLDH (3D7 PFLDH [4]) | PCT_INHIB_HEPG2 (HepG2 cells; [6]) | PCT_IHB_3D7 (P. falciparum 3D7 cells; [7]) | pXC50_3D7 (P. falciparum 3D7 cells; [7]) |
| --- | --- | --- | --- | --- | --- | --- | --- | --- | --- | --- | --- | --- | --- | --- |
| 602 nM | – | – | – | CN1CCC(NC(=O)c2cccc(Nc3cc(Nc4cccc(Br)c4)ncn3)c2)CC1 [TCMDC-124773] | 1 | 25 | 6 | 94 | 5.997 | – | – | – | – | – |
| – | 40 nM | – | – | Cc1cc(F)ccc1-c1nc(Nc2ccncc2)c2ccn(C)c2n1 [TCMDC-141231] | 5 | 9 | 8 | 89 | 6.027 | – | – | – | – | – |
| – | 375 nM | – | – | Cl.NCc1ccc(Nc2nccc(Nc3ccc(-c4ccccc4)cc3)n2)cc1 [TCMDC-136004] | 0 | 47 | 98 | 100 | 6.05 | – | – | – | – | – |
| 58 nM | – | – | – | COc1cccc(-n2ncc3c(N/N=C/c4ccc(CN(C)CCN(C)C)cc4)ncnc32)c1 [TCMDC-138728] | 0 | 29 | 91 | 100 | 6.049 | – | – | – | – | – |
| 145 nM | – | – | – | Cn1c(=O)c(-c2c(Cl)cccc2Cl)cc2cnc(Nc3ccc(N4CCOCC4)cc3)nc21 [TCMDC-137156] | 4 | 64 | 97 | 98 | 6.794 | – | – | – | – | – |
| 181 nM | – | – | – | C#CCNC(=O)c1ccc(-c2ccnc(Nc3cccc(CCCN4CCOCC4)c3)n2)s1 [TCMDC-136764] | 0 | 54 | 45 | 82 | 5.998 | – | – | – | – | – |
| 167 nM | – | – | – | O=C(Cc1ccc(Nc2nccc(Nc3cccc4[nH]ncc34)n2)cc1)Nc1ccc(C(F)(F)F)cc1 [TCMDC-136243] | 0 | 12 | 69 | 100 | 6.052 | – | – | – | – | – |
| 276 nM | 20 nM | > 10000 nM | 52 nM | CS(=O)(=O)Cc1ccc(Nc2nccc(-c3c(-c4cccc(NC(=O)c5c(F)cccc5F)c4)nn4ccccc34)n2)cc1 [TCMDC-135669] | – | – | – | – | – | 75 | 0 | 78 | 99 | 6.824 |
| – | 40 nM | > 10000 nM | 134 nM | O=C(Nc1c(F)cccc1F)c1cccc(-c2nn3ccccc3c2-c2ccnc(Nc3cccc(-c4cnco4)c3)n2)c1 [TCMDC-135743] | – | – | – | – | – | 94 | 0 | 96 | 95 | 6.443 |
| – | 20 nM | > 10000 nM | 29 nM | NS(=O)(=O)CCc1cccc(Nc2nccc(-c3c(-c4cccc(NC(=O)c5c(F)cccc5F)c4)nn4ccccc34)n2)c1 [TCMDC-135791] | – | – | – | – | – | 97 | 3 | 84 | 98 | 7.234 |
| – | 29 nM | 430 nM | 473 nM | NCC(NC(=O)c1ccc(-c2c[nH]c3ncccc23)s1)c1ccccc1.O=CO (stereo not drawn) [TCMDC-134154] | – | – | – | – | – | 87 | 0 | 52 | 95 | 6.262 |
| – | 242 nM | – | – | Cc1ccc(Nc2nccc(Nc3ccc4c(c3)nc(Nc3cc(C(C)(C)C)on3)n4C)n2)cc1S(C)(=O)=O [TCMDC-141889] | 0 | 30 | 99 | 100 | 6.222 | – | – | – | – | – |
